These results are taken from patent US11884675B2, “Heterocyclic compounds as triggering receptor expressed on myeloid cells 2 agonists and methods of use” (AMGEN INC., priority 2020, dated 2024).

Each structure is given as a SMILES string.

The target of this assay is hTREM2 (Homo sapiens, UniProt Q9NZC2). Description: TREM2 activity by cellular Syk phosphorylation (AlphaScreen/AlphaLISA) in TREM2/DAP12-HEK cells, used for Examples 1-305. The settings on record: HEK293 Cells. In kind it is cell-based. Also on record: expressed in transfected cells. Summed up: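 Single-cell-cloned HEK293 cells overexpressing TREM2 and DAP12, seeded 20 h, exposed to test articles (1% final DMSO) for 45 min at room temperature. Lysates read for phospho-Syk (Tyr525/526) vs total Syk by AlphaScreen. Signal normalised as percent of control between isotype IgG and 100 nM anti-TREM2 antibody; 4-parameter logistic fit.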
Sequence of hTREM2 (Q9NZC2 19-230): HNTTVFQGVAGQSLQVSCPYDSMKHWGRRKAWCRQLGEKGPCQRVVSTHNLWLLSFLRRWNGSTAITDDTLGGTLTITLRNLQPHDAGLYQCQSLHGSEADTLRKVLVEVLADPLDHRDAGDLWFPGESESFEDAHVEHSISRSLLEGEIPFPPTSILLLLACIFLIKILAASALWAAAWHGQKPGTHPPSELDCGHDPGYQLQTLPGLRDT
Sequence of hTREM2 (O43914 22-113 partner): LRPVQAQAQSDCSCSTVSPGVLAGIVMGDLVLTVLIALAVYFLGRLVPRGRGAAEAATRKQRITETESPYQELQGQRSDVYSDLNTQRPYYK

With `Cc1nc2nc([C@H]3CCO[C@@H](c4cnn(C)c4)C3)nc([C@H]3C[C@H](C(F)(F)F)C3)c2nc1C` (single isomer, unassigned) [Example 205], the EC50 lay within 50 to 500 nM; the “hTREM2 Emax” value is “+++ (Emax>150 and ≤250)”. With `Cc1nc2cc(N3CCO[C@@H](c4cnn(C5CC5)c4)C3)nc([C@H]3C[C@H](C(F)(F)F)C3)c2nc1C` [Example 81, 7-((2S)-2-(1-cyclopropyl-1H-pyrazol-4-yl)-4-morpholinyl)-2,3-dimethyl-5-(trans-3-(trifluoromethyl)cyclobutyl)pyrido[3,4-b]pyrazine], the EC50 lay in the range of 50 to 500 nM; the “hTREM2 Emax” value was “++ (Emax>100 and ≤150)”.

For `Cc1cc2c(-c3ccc(Cl)cc3F)nc([C@@H]3CCO[C@H](c4cnn(C5CC5)c4)C3)nc2nc1C` (single isomer, unassigned) [Example 198], the EC50 was in the range of 50 to 500 nM; the “hTREM2 Emax” value was “+++ (Emax>150 and ≤250)”. With `CCn1cc([C@H]2CN(c3cc4nc(C)ccc4c(-c4ccc(Cl)cc4F)n3)CCO2)cn1` [Example 239, (S)-4-(5-(4-chloro-2-fluorophenyl)-2-methyl-1,6-naphthyridin-7-yl)-2-(1-ethyl-1H-pyrazol-4-yl)morpholine], the EC50 was in the range of 3000 to 100000 nM; the “hTREM2 Emax” value was “+++ (Emax>150 and ≤250)”. With `Cc1cc2c(-c3ccc(F)cc3F)nc([C@@H]3CCO[C@H](c4cnn(C)c4)C3)nc2nc1C` (single isomer, unassigned) [Example 200], the half-maximal effective concentration (EC50) was in the range of 500 to 3000 nM; the “hTREM2 Emax” value is “+++ (Emax>150 and ≤250)”.

Regarding `Cc1cc2c(-c3ccc(Cl)cc3F)nc(N3CCO[C@@H](c4cnn(C)c4)C3)cc2nc1C` [Example 152, 5-(4-chloro-2-fluorophenyl)-2,3-dimethyl-7-((2S)-2-(1-methyl-1H-pyrazol-4-yl)-4-morpholinyl)-1,6-naphthyridine], the EC50 was at most 50 nM and the “hTREM2 Emax” value is listed as “++++ (Emax>250)”. For `Cc1cnc2cc(N3CCO[C@@H](c4cnn(C)c4)C3)nc(-c3ccc(Cl)cc3F)c2n1` [Example 74, 5-(4-chloro-2-fluorophenyl)-3-methyl-7-((2S)-2-(1-methyl-1H-pyrazol-4-yl)-4-morpholinyl)pyrido[3,4-b]pyrazine], the EC50 was in the range of 50 to 500 nM and the “hTREM2 Emax” value was “++++ (Emax>250)”.

Turning to `Cc1cc([C@H]2C[C@H](c3nc(-c4ccc(F)cc4F)c4cc(C)c(C)nc4n3)CCO2)ccn1` (single isomer, unassigned) [Example 228], the EC50 is at most 50 nM; the “hTREM2 Emax” value is “+++ (Emax>150 and ≤250)”. `Cc1cc([C@@H]2C[C@H](c3nc(-c4ccc(Cl)cc4F)c4nc(C)c(C)nc4n3)CCO2)ccn1` (single isomer, unassigned) [Example 206]: the EC50 was in the range of 50 to 500 nM and the “hTREM2 Emax” value is reported as “++++ (Emax>250)”. For `Cc1nc2nc(N3CCO[C@@H](c4cnn(C)c4)C3)nc(-c3ccc(F)cn3)c2nc1C` [Example 292, (S)-4-(4-(5-fluoropyridin-2-yl)-6,7-dimethylpteridin-2-yl)-2-(1-methyl-1H-pyrazol-4-yl)morpholine], the EC50 was in the range of 500 to 3000 nM; the “hTREM2 Emax” value is “+++ (Emax>150 and ≤250)”. Take `Cc1cc([C@H]2C[C@H](c3nc(-c4ccc(F)cc4F)c4ccc(C)nc4n3)CCO2)ccn1` [Example 278, 4-(2,4-difluorophenyl)-7-methyl-2-((2R,4R)-2-(2-methylpyridin-4-yl)tetrahydro-2H-pyran-4-yl)pyrido [2,3-d]pyrimidine]: the 50% effective concentration (EC50) lay within 500 to 3000 nM; the “hTREM2 Emax” value was “+++ (Emax>150 and ≤250)”. `Cc1cnc2c(-c3ccc(Cl)cc3F)nc([C@H]3CCO[C@@H](c4cnc(C)nc4)C3)nc2n1` (single isomer, unassigned) [Example 173]: the EC50 was at most 50 nM; the “hTREM2 Emax” value was “+++ (Emax>150 and ≤250)”.

For `Cc1nc2nc(N3CCO[C@@H](c4cnn(C)c4)C3)nc(N3CCCC(F)(F)C3)c2nc1C` [Example 68, 4-(3,3-difluoro-1-piperidinyl)-6,7-dimethyl-2-((2S)-2-(1-methyl-1H-pyrazol-4-yl)-4-morpholinyl)pteridine], the EC50 lay in the range of 3000 to 100000 nM. `CN1Cc2c(cc(N3CCO[C@@H](c4cnn(C5CC5)c4)C3)nc2-c2ccc(Cl)cc2F)C1=O` [Example 120, 4-(4-chloro-2-fluorophenyl)-6-((2S)-2-(1-cyclopropyl-1H-pyrazol-4-yl)-4-morpholinyl)-2-methyl-2,3-dihydro-1H-pyrrolo[3,4-c]pyridin-1-one]: the EC50 lay within 50 to 500 nM and the “hTREM2 Emax” value is reported as “++++ (Emax>250)”. Take `Cc1ccc2c(-c3ccc(Cl)cc3F)nc(N3CCO[C@@H](c4cnn(C)c4)C3)cc2n1` [Example 148, 5-(4-chloro-2-fluorophenyl)-2-methyl-7-((2S)-2-(1-methyl-1H-pyrazol-4-yl)-4-morpholinyl)-1,6-naphthyridine]: the EC50 was in the range of 50 to 500 nM; the “hTREM2 Emax” value is “+++ (Emax>150 and ≤250)”. As for `Cc1cc([C@H]2CN(c3cc4nc(C)cnc4c(-c4ccc(Cl)cc4F)n3)CCO2)ccn1` [Example 77, 5-(4-chloro-2-fluorophenyl)-2-methyl-7-((2S)-2-(2-methyl-4-pyridinyl)-4-morpholinyl)pyrido[3,4-b]pyrazine], the EC50 was at most 50 nM; the “hTREM2 Emax” value was “+++ (Emax>150 and ≤250)”. On to `Cc1ccc2c(n1)nc(N1CCO[C@@H](c3cnn(C)c3)C1)nc2[C@H]1C[C@H](C(F)(F)F)C1` [Example 97, 7-methyl-2-((2S)-2-(1-methyl-1H-pyrazol-4-yl)-4-morpholinyl)-4-(trans-3-(trifluoromethyl)cyclobutyl)pyrido[2,3-d]pyrimidine], for which the EC50 lay within 500 to 3000 nM; the “hTREM2 Emax” value is “+ (Emax>45 and ≤100)”. With `Cc1nc2nc(N3CCO[C@@H](c4cnn(C)c4)C3)nc([C@H]3CC[C@@H](C(F)(F)F)CC3)c2nc1C` [Example 131, 6,7-dimethyl-2-((2S)-2-(1-methyl-1H-pyrazol-4-yl)-4-morpholinyl)-4-(cis-4-(trifluoromethyl)cyclohexyl)pteridine], the EC50 fell in the range of 50 to 500 nM; the “hTREM2 Emax” value is “+++ (Emax>150 and ≤250)”. In turn, `Cc1cc([C@@H]2C[C@@H](c3nc(-c4ccc(F)cc4F)c4ccc(C)nc4n3)CCO2)ccn1` (single isomer, unassigned) [Example 221] showed an EC50 of 500 to 3000 nM. Take `Cc1nc2nc(N3CCO[C@@H](c4cnn(C)c4)C3)nc(CCC(F)(F)F)c2nc1C` [Example 40, 6,7-dimethyl-2-((2S)-2-(1-methyl-1H-pyrazol-4-yl)-4-morpholinyl)-4-(3,3,3-trifluoropropyl)pteridine]: the EC50 is 50 to 500 nM; the “hTREM2 Emax” value was “+ (Emax>45 and ≤100)”. On to `Cc1nc2nc(N3CCO[C@@H](c4cnn(C)c4)C3)nc(C3CCCCC3)c2nc1C` [Example 134, 4-cyclohexyl-6,7-dimethyl-2-((2S)-2-(1-methyl-1H-pyrazol-4-yl)-4-morpholinyl)pteridine], for which the 50% effective concentration (EC50) was 50 to 500 nM; the “hTREM2 Emax” value was “+ (Emax>45 and ≤100)”. As for `Cc1cc([C@H]2CN(c3cc(-c4ccc(Cl)cc4F)c4nc(C)c(C)nc4c3)CCO2)ccn1` [Example 163, 5-(4-chloro-2-fluorophenyl)-2,3-dimethyl-7-((2S)-2-(2-methyl-4-pyridinyl)-4-morpholinyl) quinoxaline], the EC50 is at most 50 nM and the “hTREM2 Emax” value was “++++ (Emax>250)”. On to `Cc1ccc2c(n1)nc(N1CCO[C@@H](c3cnn(C)c3)C1)nc2[C@H]1CC[C@@H](C(F)(F)F)CC1` [Example 142, 7-methyl-2-((2S)-2-(1-methyl-1H-pyrazol-4-yl)-4-morpholinyl)-4-(cis-4-(trifluoromethyl)cyclohexyl)pyrido [2,3-d]pyrimidine], for which the EC50 lay within 3000 to 100000 nM; the “hTREM2 Emax” value was “++ (Emax>100 and ≤150)”. For the compound `Cn1cc([C@H]2CN(c3cc4nccnc4c(-c4ccc(Cl)cc4F)n3)CCO2)cn1` [Example 233, (S)-4-(5-(4-chloro-2-fluorophenyl)pyrido[3,4-b]pyrazin-7-yl)-2-(1-methyl-1H-pyrazol-4-yl)morpholine], the EC50 is 3000 to 100000 nM; the “hTREM2 Emax” value is “+++ (Emax>150 and ≤250)”. `Cc1ccc2c(C34CC(C(F)(F)F)(C3)C4)nc(N3CCO[C@@H](c4cnn(C5CC5)c4)C3)nc2n1` [Example 101, 2-((2S)-2-(1-cyclopropyl-1H-pyrazol-4-yl)-4-morpholinyl)-7-methyl-4-(3-(trifluoromethyl)bicyclo[1.1.1]pentan-1-yl)pyrido[2,3-d]pyrimidine] displayed a half-maximal effective concentration (EC50) of 3000 to 100000 nM. On to `Cc1cc([C@@H]2C[C@H](c3nc4nc(C)c(C)nc4c([C@H]4C[C@H](C(F)(F)F)C4)n3)CCO2)ccn1` (single isomer, unassigned) [Example 214], for which the concentration for a half-maximal effect (EC50) was in the range of 50 to 500 nM and the “hTREM2 Emax” value is “++++ (Emax>250)”. On to `Cc1nc2nc(N3CCO[C@@H](c4cnn(C)c4)C3)nc(N3CCC[C@H](F)C3)c2nc1C` (single isomer, unassigned) [Example 70], for which the EC50 lay within 500 to 3000 nM; the “hTREM2 Emax” value was “+ (Emax>45 and ≤100)”. For `Cc1cc([C@H]2C[C@H](c3nc(-c4ccc(F)cc4F)c4nc(C)c(C)nc4n3)CCO2)ccn1` (single isomer, unassigned) [Example 213], the EC50 was 50 to 500 nM; the “hTREM2 Emax” value is “+++ (Emax>150 and ≤250)”. Take `Cc1cc([C@H]2CN(c3nc(CCC(F)(F)F)c4nc(C)c(C)nc4n3)CCO2)ccn1` [Example 41, 6,7-dimethyl-2-((2S)-2-(2-methyl-4-pyridinyl)-4-morpholinyl)-4-(3,3,3-trifluoropropyl)pteridine]: the half-maximal effective concentration (EC50) was in the range of 50 to 500 nM; the “hTREM2 Emax” value is “+ (Emax>45 and ≤100)”.

On to `Cc1cc([C@H]2C[C@@H](c3nc(-c4ccc(F)cc4F)c4nc(C)c(C)nc4n3)CCO2)ccn1` (single isomer, unassigned) [Example 211], for which the concentration giving a half-maximal response (EC50) was at most 50 nM and the “hTREM2 Emax” value is reported as “++++ (Emax>250)”.
